Structures can show the parent of a compound that is named as a salt.
System: Pseudomonas aeruginosa PAM1001
Experiment: microbe, parasite or virus in culture
Type: cell-based
Settings: for inhibition at 2.5 µg/mL / inhibition at 5 µg/mL / inhibition at 10 µg/mL / inhibition at 20 µg/mL / inhibition at 40 µg/mL: Pseudomonas aeruginosa, PAM1001, read-out: Inhibition (%) of growth of P. aeruginosa PAM1001; for Inhibition (%) of growth of P. aeruginosa PAM1001: Levofloxacin 0.25 μg/mL
In short: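 P. aeruginosa PAM1001 grown in Mueller Hinton broth from 1×10^6 CFU/mL inoculum with levofloxacin 0.25 microg/mL plus varying EPI concentrations; growth followed by A650 over 18 h at 37° C. Result given as % growth inhibition versus levofloxacin-only culture without EPI.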

[1] = Concentration of Compound 2.5 μg/mL
[2] = Concentration of Compound 5 μg/mL
[3] = Concentration of Compound 10 μg/mL
[4] = Concentration of Compound 20 μg/mL
[5] = Concentration of Compound 40 μg/mL

NCC(O)C[C@H](N)C(=O)N1C[C@H](NC(=O)CCCc2ccccc2)C[C@H]1C(=O)Nc1ccc2c(c1)CCC2 (stereo partly drawn) [Compound D125, 4-Hydroxy-L-Ornithyl-trans-4-(4-Phenylbutanoyl)amino-L-Proline 5-Indanylamide Dihydrochloride]
inhibition at 2.5 µg/mL: 15% | inhibition at 5 µg/mL: 100% | inhibition at 10 µg/mL: 100% | inhibition at 20 µg/mL: 100% | inhibition at 40 µg/mL: 100%

NCC(=O)N[C@H]1CN[C@H](C(=O)Nc2ccc(CSc3ccccc3)cc2)C1 [Compound D319, trans-4-Glycylamino-L-Proline 4-(Phenylthiomethyl)-phenylamide Dihydrochloride]
inhibition at 2.5 µg/mL: 19% | inhibition at 5 µg/mL: 18% | inhibition at 10 µg/mL: 99% | inhibition at 20 µg/mL: 100% | inhibition at 40 µg/mL: 100%

NCC(=O)N[C@H]1CN[C@H](C(=O)Nc2ccc(Cc3ccccc3)cc2)C1 [Compound D308, trans-4-Glycylamino-L-Proline 4-Benzylphenylamide Dihydrochloride]
inhibition at 2.5 µg/mL: 16% | inhibition at 5 µg/mL: 14% | inhibition at 10 µg/mL: 98% | inhibition at 20 µg/mL: 100% | inhibition at 40 µg/mL: 100%

NCC(=O)N[C@H]1CN[C@H](C(=O)N[C@H](CCc2ccccc2)C(=O)Nc2ccc3c(c2)CCC3)C1 [Compound D203, trans-4-Glycylamino-L-Prolyl-D-Homophenylalanine 5-Indanylamide Dihydrochloride]
inhibition at 2.5 µg/mL: 18% | inhibition at 5 µg/mL: 17% | inhibition at 10 µg/mL: 100% | inhibition at 20 µg/mL: 100% | inhibition at 40 µg/mL: 100%

NCCNC(=O)[C@@H]1C[C@@H](Oc2cccc(-c3ccccc3)c2)CN1 [Compound D601, trans-4-(3-Biphenyloxy)-L-Proline 2-Aminoethylamide Dihydrochloride]
inhibition at 2.5 µg/mL: 20% | inhibition at 5 µg/mL: 18% | inhibition at 10 µg/mL: 16% | inhibition at 20 µg/mL: 86% | inhibition at 40 µg/mL: 100%

CC(C)(C)c1ccc(NC(=O)[C@@H]2C[C@@H](NC(=O)CN)CN2)cc1 [Compound D313, trans-4-Glycylamino-L-Proline 4-tert-Butylphenyl-amide Dihydrochloride]
inhibition at 2.5 µg/mL: 17% | inhibition at 5 µg/mL: 17% | inhibition at 10 µg/mL: 96% | inhibition at 20 µg/mL: 99% | inhibition at 40 µg/mL: 99%

NCC(=O)N[C@H]1CCN[C@H](C(=O)N2C[C@H](NC(=O)[C@H](O)CCc3ccccc3)C[C@H]2C(=O)Nc2cnc3ccccc3c2)C1 (mixture of isomers) [Compound D114, trans-4-Glycylamino-L-Pipecolinoyl-trans-4-((R)-2-Hydroxy-4-Phenylbutyrylamino)-L-Proline 3-Quinolylamide Trihydrochloride]
inhibition at 2.5 µg/mL: 20% | inhibition at 5 µg/mL: 22% | inhibition at 10 µg/mL: 90% | inhibition at 20 µg/mL: 100% | inhibition at 40 µg/mL: 100%

NCC(=O)N[C@H]1CN[C@H](C(=O)N[C@H](CCc2ccccc2)C(=O)Nc2cnc3ccccc3c2)C1 [Compound D201, trans-4-Glycylamino-L-Prolyl-D-Homophenylalanine 3-Quinolylamide Trihydrochloride]
inhibition at 2.5 µg/mL: 17% | inhibition at 5 µg/mL: 9% | inhibition at 10 µg/mL: 99% | inhibition at 20 µg/mL: 100% | inhibition at 40 µg/mL: 100%

NCC(=O)N[C@@H]1CN[C@H](C(=O)N2C[C@H](NC(=O)[C@H](O)CCc3ccccc3)C[C@H]2C(=O)Nc2cnc3ccccc3c2)C1 (mixture of isomers) [Compound D104, cis-4-Glycylamino-L-Prolyl-trans-4-((R)-2-Hydroxy-4-Phenylbutyrylamino)-L-Proline 3-Quinolylamide Trihydrochloride]
inhibition at 2.5 µg/mL: 18% | inhibition at 5 µg/mL: 19% | inhibition at 10 µg/mL: 14% | inhibition at 20 µg/mL: 62% | inhibition at 40 µg/mL: 100%

NCC(O)[C@@H]1C[C@@H](Oc2cccc(-c3ccccc3)c2)CN1 (stereo partly drawn) [Compound D602, (2S,4R)-2-(2-Amino-1-hydroxyethyl)-4-(3-biphenyloxy)pyrrolidine Dihydrochloride]
inhibition at 2.5 µg/mL: 98% | inhibition at 5 µg/mL: 99% | inhibition at 10 µg/mL: 100% | inhibition at 20 µg/mL: 100% | inhibition at 40 µg/mL: 100%

Cl.Cl.NCC(=O)N[C@@H]1CN[C@@H](C(=O)N2CCC(Oc3cc(Cl)cc(Cl)c3)CC2)C1 [Compound D415]
Inhibition (%) of growth of P. aeruginosa PAM1001 [1]: 13% | Inhibition (%) of growth of P. aeruginosa PAM1001 [2]: 99% | Inhibition (%) of growth of P. aeruginosa PAM1001 [3]: 100% | Inhibition (%) of growth of P. aeruginosa PAM1001 [4]: 100% | Inhibition (%) of growth of P. aeruginosa PAM1001 [5]: 100%

trans-4-Glycylamino-D-proline 3-Biphenylamide Dihydrochloride [Compound D307]
Inhibition (%) of growth of P. aeruginosa PAM1001 [1]: 24% | Inhibition (%) of growth of P. aeruginosa PAM1001 [2]: 5% | Inhibition (%) of growth of P. aeruginosa PAM1001 [3]: 90% | Inhibition (%) of growth of P. aeruginosa PAM1001 [4]: 100% | Inhibition (%) of growth of P. aeruginosa PAM1001 [5]: 100%

NCC(=O)N[C@@H]1CN[C@@H](COc2cccc(-c3ccccc3)c2)C1 [Compound D504, (2R,4S)-4-Glycylamino-2-(3-Biphenyloxy)methyl-pyrrolidine Dihydrochloride]
inhibition at 2.5 µg/mL: 22% | inhibition at 5 µg/mL: 3% | inhibition at 10 µg/mL: 74% | inhibition at 20 µg/mL: 100% | inhibition at 40 µg/mL: 99%

NCCS(=O)(=O)N[C@H]1CN[C@H](C(=O)Nc2ccc(Oc3ccccc3)cc2)C1 [Compound D322, trans-4-(2-Aminoethylsulfonylamino)-L-Proline 4-Phenoxyphenylamide Dihydrochloride]
inhibition at 2.5 µg/mL: 19% | inhibition at 5 µg/mL: 19% | inhibition at 10 µg/mL: 17% | inhibition at 20 µg/mL: 99% | inhibition at 40 µg/mL: 100%

NCC(=O)N[C@H]1CN[C@H](C(=O)Nc2ccc(OCc3ccccc3)cc2)C1 [Compound D317, trans-4-Glycylamino-L-Proline 4-Benzyloxyphenyl-amide Dihydrochloride]
inhibition at 2.5 µg/mL: 20% | inhibition at 5 µg/mL: 18% | inhibition at 10 µg/mL: -1% | inhibition at 20 µg/mL: 99% | inhibition at 40 µg/mL: 99%

NCC(=O)N[C@H]1CN[C@H](C(=O)Nc2ccc(Oc3ccc(Cl)cc3)cc2)C1 [Compound D303, trans-4-Glycylamino-L-Proline 4-(4′-Chlorophenoxy)-phenylamide Dihydrochloride]
inhibition at 2.5 µg/mL: 18% | inhibition at 5 µg/mL: 91% | inhibition at 10 µg/mL: 100% | inhibition at 20 µg/mL: 100% | inhibition at 40 µg/mL: 99%
